Laboratory results taken from ChEMBL document CHEMBL4393698, “Exploring the effect of chirality on the therapeutic potential of N-alkyl-deoxyiminosugars: anti-inflammatory response to Pseudomonas aeruginosa infections for application in CF lung disease” (Eur J Med Chem, 2019).
Calls of active or inactive are those of the source. No cut-off for these calls is given here.

Experiments:
CuFi-1 [1] = assay: Anti-inflammatory activity in human CuFi1 cells assessed as reduction in Pseudomonas aeruginosa PAO1-induced IL-8 mRNA expression level pretreated for 1 hr followed by Pseudomonas aeruginosa PAO1 challenge and measured after 4 hrs by RT-PCR analysis relative to control; assay type: functional
CuFi-1 [2] = assay: Anti-inflammatory activity in human CuFi1 cells assessed as reduction in Pseudomonas aeruginosa PAO1-induced IL-8 mRNA expression level at 0.1 uM pretreated for 1 hr followed by Pseudomonas aeruginosa PAO1 challenge and measured after 4 hrs by RT-PCR analysis relative to control; assay type: functional; design: scale not given: the % may be the effect or the level left
CuFi-1 [3] = assay: Induction of apoptosis in human CuFi1 cells incubated for 48 hrs by Muse Annexin V based cell counter assay; details: cufi-1, 48 h
Homo sapiens = organism: Homo sapiens; assay: Anti-inflammatory activity in human Bronchial epithelial cells assessed as reduction in Pseudomonas aeruginosa PAO1-induced IL-8 mRNA expression level at 10 nM pretreated for 1 hr followed by Pseudomonas aeruginosa PAO1 challenge and measured after 4 hrs by RT-PCR analysis relative to control; assay type: functional
CuFi-1 [4] = assay: Cytotoxicity against human CuFi1 cells assessed as reduction in cell viability incubated for 48 hrs by Muse cell analyser method; assay type: cell-based; details: cufi-1, 48 h
CuFi-1 [5] = assay: Anti-inflammatory activity in human CuFi1 cells assessed as reduction in Pseudomonas aeruginosa PAO1-induced IL-8 mRNA expression level pretreated for 1 hr followed by Pseudomonas aeruginosa PAO1 challenge and measured after 4 hrs by RT-PCR analysis; assay type: functional, cell-based
Beta-glucosidase = target: T1, Beta-glucosidase (Homo sapiens, UniProt Q9HCG7)
T1 sequence (Q9HCG7 whole entry): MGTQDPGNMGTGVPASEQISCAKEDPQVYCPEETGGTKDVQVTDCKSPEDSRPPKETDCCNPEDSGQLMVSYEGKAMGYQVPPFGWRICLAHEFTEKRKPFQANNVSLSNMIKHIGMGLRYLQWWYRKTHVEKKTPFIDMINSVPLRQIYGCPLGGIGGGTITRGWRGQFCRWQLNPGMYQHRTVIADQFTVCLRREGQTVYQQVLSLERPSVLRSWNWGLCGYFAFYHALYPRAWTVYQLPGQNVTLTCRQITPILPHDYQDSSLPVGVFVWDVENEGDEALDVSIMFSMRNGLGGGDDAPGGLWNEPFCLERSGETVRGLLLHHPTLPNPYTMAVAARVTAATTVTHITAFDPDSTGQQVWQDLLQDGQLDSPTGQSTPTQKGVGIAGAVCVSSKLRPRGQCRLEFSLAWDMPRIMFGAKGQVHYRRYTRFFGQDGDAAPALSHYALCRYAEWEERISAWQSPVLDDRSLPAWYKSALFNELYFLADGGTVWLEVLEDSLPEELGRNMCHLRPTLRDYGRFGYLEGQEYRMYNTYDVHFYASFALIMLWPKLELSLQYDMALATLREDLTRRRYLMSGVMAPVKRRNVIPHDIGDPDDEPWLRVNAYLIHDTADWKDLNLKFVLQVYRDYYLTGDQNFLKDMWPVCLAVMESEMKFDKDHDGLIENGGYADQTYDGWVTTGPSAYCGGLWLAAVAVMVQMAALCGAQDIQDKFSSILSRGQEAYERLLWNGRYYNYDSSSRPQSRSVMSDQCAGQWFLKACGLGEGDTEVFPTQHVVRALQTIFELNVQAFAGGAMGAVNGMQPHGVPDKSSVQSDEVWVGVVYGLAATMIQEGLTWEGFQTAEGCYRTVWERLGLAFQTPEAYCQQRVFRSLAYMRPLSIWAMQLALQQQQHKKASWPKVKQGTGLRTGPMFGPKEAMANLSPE

[6] = target: T2, Lysosomal acid glucosylceramidase (Homo sapiens) (UniProt P04062); details: SH-SY5Y, 1 nM
T2 sequence (whole entry): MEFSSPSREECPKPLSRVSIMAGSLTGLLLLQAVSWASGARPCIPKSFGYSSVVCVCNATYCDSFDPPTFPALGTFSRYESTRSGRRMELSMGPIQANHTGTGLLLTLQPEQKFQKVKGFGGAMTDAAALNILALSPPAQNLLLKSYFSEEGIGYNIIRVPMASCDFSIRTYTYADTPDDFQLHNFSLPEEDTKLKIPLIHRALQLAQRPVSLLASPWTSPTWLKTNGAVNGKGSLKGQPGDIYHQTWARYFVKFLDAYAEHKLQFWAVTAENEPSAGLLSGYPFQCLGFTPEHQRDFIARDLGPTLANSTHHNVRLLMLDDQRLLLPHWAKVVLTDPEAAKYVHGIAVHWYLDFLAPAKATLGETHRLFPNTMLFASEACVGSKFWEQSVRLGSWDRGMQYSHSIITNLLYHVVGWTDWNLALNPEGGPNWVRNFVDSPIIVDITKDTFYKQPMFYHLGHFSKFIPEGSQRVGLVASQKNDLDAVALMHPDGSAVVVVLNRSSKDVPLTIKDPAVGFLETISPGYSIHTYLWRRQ

[7] = target: T3, Beta-glucosidase (Homo sapiens) (UniProt Q9HCG7); details: SH-SY5Y, 1 nM
T3 sequence (whole entry): T1 sequence (Q9HCG7 whole entry)

[8] = Toxicity in Pseudomonas aeruginosa PAO1 infected C57Bl/6NCr mouse assessed as change in body weight at 10 to 100 mg/kg, po administered via gavage pretreated for 1 to 24 hrs followed by Pseudomonas aeruginosa PAO1 challenge and measured after 6 hrs; assay type: organism-based; details: in vivo
Pseudomonas aeruginosa [9] = assay: Anti-inflammatory activity in Pseudomonas aeruginosa PAO1 infected C57Bl/6NCr mouse assessed as increase in alveolar macrophages in lungs at 10 mg/kg, po administered via gavage pretreated for 1 to 24 hrs followed by Pseudomonas aeruginosa PAO1 challenge and measured after 6 hrs; assay type: functional, organism-based
[10] = Toxicity in Pseudomonas aeruginosa PAO1 infected C57Bl/6NCr mouse assessed as change in body weight at 100 mg/kg, po administered via gavage pretreated for 1 to 24 hrs followed by Pseudomonas aeruginosa PAO1 challenge and measured after 6 hrs; assay type: organism-based; details: in vivo
Pseudomonas aeruginosa [11] = assay: Anti-inflammatory activity in Pseudomonas aeruginosa PAO1 infected C57Bl/6NCr mouse assessed as reduction in bacterial CFU in lungs at 10 mg/kg, po administered via gavage pretreated for 1 to 24 hrs followed by Pseudomonas aeruginosa PAO1 challenge and measured after 6 hrs; assay type: functional, organism-based
Pseudomonas aeruginosa [12] = assay: Anti-inflammatory activity in Pseudomonas aeruginosa PAO1 infected C57Bl/6NCr mouse assessed as reduction in bacterial CFU in BAL at 10 mg/kg, po administered via gavage pretreated for 1 to 24 hrs followed by Pseudomonas aeruginosa PAO1 challenge and measured after 6 hrs; assay type: functional, organism-based
Pseudomonas aeruginosa [13] = assay: Anti-inflammatory activity in Pseudomonas aeruginosa PAO1 infected C57Bl/6NCr mouse assessed as reduction in amount of neutrophils in lungs at 100 mg/kg, po administered via gavage pretreated for 1 to 24 hrs followed by Pseudomonas aeruginosa PAO1 challenge and measured after 6 hrs; assay type: functional, organism-based
Pseudomonas aeruginosa [14] = assay: Anti-inflammatory activity in Pseudomonas aeruginosa PAO1 infected C57Bl/6NCr mouse assessed as reduction in amount of bacteria recovered in airway at 10 mg/kg, po administered via gavage pretreated for 1 to 24 hrs followed by Pseudomonas aeruginosa PAO1 challenge and measured after 6 hrs; assay type: functional, organism-based
Pseudomonas aeruginosa [15] = assay: Anti-inflammatory activity in Pseudomonas aeruginosa PAO1 infected C57Bl/6NCr mouse assessed as reduction in amount of neutrophils recruited in BAL at 10 mg/kg, po administered via gavage pretreated for 1 to 24 hrs followed by Pseudomonas aeruginosa PAO1 challenge and measured after 6 hrs; assay type: functional, organism-based
Pseudomonas aeruginosa [16] = assay: Anti-inflammatory activity in Pseudomonas aeruginosa PAO1 infected C57Bl/6NCr mouse assessed as reduction in bacteria detected in lungs dosed orally via gavage pretreated for 1 to 24 hrs followed by Pseudomonas aeruginosa PAO1 challenge and measured after 6 hrs; assay type: functional, organism-based

IC50 (CuFi-1 [5]) [nM] | SMILES | Imax (CuFi-1 [1]) [%] | Activity (CuFi-1 [2]) | Activity (CuFi-1 [3]) | Activity (CuFi-1 [4]) | further results
2000 | CCCCN1C[C@H](O)[C@@H](O)[C@H](O)[C@H]1CO | 50 |  | Non-Toxic | Non-Toxic | Activity [8]: Non-Toxic
1.84 | OC[C@@H]1[C@@H](O)[C@H](O)[C@@H](O)CN1CCCCCOCC12CC3CC(CC(C3)C1)C2 |  |  | Non-Toxic | Non-Toxic | 
0.6 | CCCCCCCCCN1CC(O)C(O)C(O)C1CO (racemic) | 12 | 22% | Non-Toxic | Non-Toxic | 
0.95 | CCCCN1CC(O)C(O)C(O)C1CO (racemic) | 36 | 30% | Non-Toxic | Non-Toxic | Activity (Pseudomonas aeruginosa [9]): Active; Activity (Homo sapiens): Active; Activity [10]: Non-Toxic; Activity (Pseudomonas aeruginosa [11]): Active; Activity (Pseudomonas aeruginosa [12]): Active; Activity (Pseudomonas aeruginosa [13]): inactive

Second part, the compound before the results:

SMILES | IC50 (CuFi-1 [5]) [nM] | Imax (CuFi-1 [1]) [%] | Activity (CuFi-1 [2]) | Activity (CuFi-1 [3]) | Activity (CuFi-1 [4]) | further results
OCC1C(O)C(O)C(O)CN1CCCCCOCC12CC3CC(CC(C3)C1)C2 (racemic) | 1.84 | 29 | 42% | Non-Toxic | Non-Toxic | Activity (Homo sapiens): Active
OC[C@H]1[C@H](O)[C@@H](O)[C@H](O)CN1CCCCCOCC12CC3CC(CC(C3)C1)C2 |  |  | 29% | Non-Toxic | Non-Toxic | 
CCCCCCOCCCCCN1C[C@H](O)[C@@H](O)[C@H](O)[C@H]1CO |  |  |  |  |  | IC50 (Beta-glucosidase): 0.4 nM; Imax [6]: 100%; Imax [7]: 100%
CCCCCCCCCN1C[C@@H](O)[C@H](O)[C@@H](O)[C@@H]1CO |  |  | 16% | Non-Toxic | Non-Toxic | 
CCCCCCOCCCCCN1C[C@@H](O)[C@H](O)[C@@H](O)[C@@H]1CO |  |  |  |  |  | IC50 (Beta-glucosidase): 36700 nM; Imax [6]: 65%; Imax [7]: 100%
CCCCN1C[C@@H](O)[C@H](O)[C@@H](O)[C@@H]1CO |  |  | <=20% | Non-Toxic | Non-Toxic | Activity (Pseudomonas aeruginosa [14]): Active; Activity (Pseudomonas aeruginosa [15]): Active; Activity (Pseudomonas aeruginosa [16]): inactive; Activity [8]: Non-Toxic
CCCCCCCCCN1C[C@H](O)[C@@H](O)[C@H](O)[C@H]1CO |  |  | 8% | Non-Toxic | Non-Toxic | 
CCCCCCOCCCCCN1CC(O)C(O)C(O)C1CO (racemic) |  |  |  |  |  | IC50 (Beta-glucosidase): 1 nM; Imax [7]: 100%
